Source: the supplement of paper PMC13380429
± gives the standard deviation of the averaged measurements.

Columns and labels:
Settings in all cases: 72 h
Caco-2 [1] = experiment: cell viability relative to DMSO; higher = less toxic
Calu-3 [2] = experiment: as above
HepG2 [3] = experiment: as above
U2OS [4] = experiment: as above
Vero E6 [5] = experiment: as above
Caco-2 [6] = experiment: relative viability EC50 (midpoint between 100% and the lowest measured viability); higher = less toxic
Calu-3 [7] = experiment: as above
HepG2 [8] = experiment: as above
U2OS [9] = experiment: as above
Vero E6 [10] = experiment: as above
Caco-2 [11] = experiment: drug sensitivity score (DSS) for viability; higher = more toxic; extreme values may be limits of the assay
Calu-3 [12] = experiment: as above
HepG2 [13] = experiment: as above
U2OS [14] = experiment: as above
Vero E6 [15] = experiment: as above

Row | Compound | cell viability (Caco-2 [1]; 1 nM) [%] | cell viability (Caco-2 [1]; 10 nM) [%] | cell viability (Caco-2 [1]; 100 nM) [%] | cell viability (Caco-2 [1]; 1000 nM) [%] | cell viability (Caco-2 [1]; 10000 nM) [%] | cell viability (Calu-3 [2]; 1 nM) [%] | cell viability (Calu-3 [2]; 10 nM) [%] | cell viability (Calu-3 [2]; 100 nM) [%] | cell viability (Calu-3 [2]; 1000 nM) [%] | cell viability (Calu-3 [2]; 10000 nM) [%] | cell viability (HepG2 [3]; 1 nM) [%] | cell viability (HepG2 [3]; 10 nM) [%] | cell viability (HepG2 [3]; 100 nM) [%] | cell viability (HepG2 [3]; 1000 nM) [%] | cell viability (HepG2 [3]; 10000 nM) [%] | cell viability (U2OS [4]; 1 nM) [%] | cell viability (U2OS [4]; 10 nM) [%] | cell viability (U2OS [4]; 100 nM) [%] | cell viability (U2OS [4]; 1000 nM) [%] | cell viability (U2OS [4]; 10000 nM) [%] | cell viability (Vero E6 [5]; 1 nM) [%] | cell viability (Vero E6 [5]; 10 nM) [%] | cell viability (Vero E6 [5]; 100 nM) [%] | cell viability (Vero E6 [5]; 1000 nM) [%] | cell viability (Vero E6 [5]; 10000 nM) [%] | relative viability EC50 (Caco-2 [6]) [µM] | relative viability EC50 (Calu-3 [7]) [µM] | relative viability EC50 (HepG2 [8]) [µM] | relative viability EC50 (U2OS [9]) [µM] | relative viability EC50 (Vero E6 [10]) [µM] | drug sensitivity score (Caco-2 [11]) | drug sensitivity score (Calu-3 [12]) | drug sensitivity score (HepG2 [13]) | drug sensitivity score (U2OS [14]) | drug sensitivity score (Vero E6 [15])
1 | CCOC(=O)C1=C[C@]2(CC)CCCN3CCc4c(n1c1ccccc41)[C@@H]32 [vinpocetine] | 92 | 96.7 | 91.7 | 98.4 | 104 | 106 | 95.9 | 94 | 105 | 98.3 | 97.7 | 94 | 99.7 | 89.7 | 108 | 97.6 | 101 | 102 | 101 | 101 | 98.8 | 87.7 | 95.9 | 91.8 | 107 | > 10 | > 10 | > 10 | > 10 | > 10 | 0 | 0 | 0 | 0 | 0
2 | COc1cc(-n2c(=S)[nH]c3ccccc3c2=O)c(Cl)cc1Cl [mdivi-1] | 103 | 98.1 | 94.2 | 94.4 | 86.6 | 95.2 | 97.8 | 96.2 | 98.6 | 92.1 | 94.8 | 94.3 | 99.9 | 95.7 | 88.3 | 99.6 | 104 | 101 | 99.7 | 92.4 | 97.8 | 106 | 95.1 | 97.3 | 93 | > 10 | > 10 | > 10 | > 10 | > 10 | 0.1 | 0 | 0 | 0 | 0
3 | COc1ccc(OC[C@@H]2c3cc(OC)c(OC)cc3CCN2C(=O)c2cccc(Cl)c2)cc1 [CIQ] | 101 | 102 | 91.8 | 101 | 76.4 | 100 | 102 | 100 | 109 | 92.7 | 101 | 96.5 | 91.4 | 89.9 | 106 | 96.6 | 100 | 93.9 | 104 | 91.3 | 100 | 97.4 | 93.7 | 94 | 98.6 | > 10 | > 10 | > 10 | > 10 | > 10 | 0.8 | 0 | 0 | 0 | 0
4 | C[C@@H](O)[C@H]1C(=O)N2C(C(=O)O)=C(S[C@@H]3CN[C@H](CNS(N)(=O)=O)C3)[C@H](C)[C@H]12 [doripenem] | 103 | 98 | 95.2 | 92.3 | 107 | 93.1 | 85.6 | 84 | 95.1 | 94.4 | 104 | 106 | 91 | 99.9 | 96.8 | 95.6 | 94.6 | 95.1 | 95.2 | 94.7 | 104 | 104 | 97.3 | 99.4 | 97.3 | > 10 | > 10 | > 10 | > 10 | > 10 | 0 | 0 | 0 | 0 | 0
5 | CCCCS(=O)(=O)N[C@@H](Cc1ccc(OCCCCC2CCNCC2)cc1)C(=O)O [tirofiban] | 94 | 99.9 | 98.3 | 104 | 107 | 94.5 | 84.1 | 96.3 | 105 | 110 | 99.1 | 102 | 104 | 91.5 | 99.6 | 95.5 | 98.5 | 98.7 | 101 | 105 | 94.8 | 93.5 | 93.7 | 86.3 | 101 | > 10 | > 10 | > 10 | > 10 | > 10 | 0 | 0 | 0 | 0 | 0
6 | CCCC(C(=O)OCCN(CC)CC)(c1ccccc1)c1ccccc1 [proadifen] | 89.8 | 101 | 102 | 101 | 87.9 | 99.3 | 93.1 | 101 | 105 | 99.6 | 101 | 100 | 92.6 | 95 | 88.1 | 93 | 97.9 | 99.1 | 102 | 98.5 | 97.9 | 96 | 98.4 | 97.3 | 99.8 | > 10 | > 10 | > 10 | > 10 | > 10 | 0 | 0 | 0 | 0 | 0
7 | NS(=O)(=O)c1cc2c(cc1Cl)NC(C1CC3C=CC1C3)NS2(=O)=O (stereo not given) [cyclothiazide] | 92.4 | 89 | 103 | 81.8 | 91.2 | 101 | 96.7 | 95.3 | 112 | 100 | 90.8 | 104 | 88.9 | 99.9 | 93.8 | 93.7 | 95.2 | 99.9 | 94.3 | 97.7 | 94.4 | 102 | 91.2 | 92.5 | 105 | > 10 | > 10 | > 10 | > 10 | > 10 | 0 | 0 | 0 | 0 | 0
8 | Cc1ccc(F)cc1C(=O)Nc1ccc(C(=O)N2Cc3cccn3Cc3ccccc32)c(Cl)c1 [lixivaptan] | 96.6 | 88.4 | 91.4 | 88.3 | 95 | 102 | 98.6 | 96.2 | 105 | 108 | 114 | 108 | 99.5 | 103 | 84.2 | 101 | 96.5 | 101 | 96.3 | 97.7 | 106 | 103 | 102 | 102 | 95.8 | > 10 | > 10 | > 10 | > 10 | > 10 | 0 | 0 | 0.2 | 0 | 0
9 | CCCCCCCCCCCCc1ccc(S(=O)(=O)Nc2nncs2)cc1 [PHT-427] | 95.2 | 95.3 | 101 | 98.1 | 97.4 | 96.4 | 94.9 | 95.6 | 99.6 | 99 | 93.6 | 106 | 88.1 | 102 | 92.6 | 102 | 97.5 | 98.2 | 98.7 | 99.9 | 106 | 108 | 102 | 97.8 | 104 | > 10 | > 10 | > 10 | > 10 | > 10 | 0 | 0 | 0 | 0 | 0
10 | CO[C@H]1/C=C/O[C@@]2(C)Oc3c(C)c(O)c4c(O)c(cc(O)c4c3C2=O)NC(=O)/C(C)=C\C=C\[C@H](C)[C@H](O)[C@@H](C)[C@@H](O)[C@@H](C)[C@H](OC(C)=O)[C@@H]1C [rifamycin-sv] | 102.6 ± 0.71 | 101 ± 1.5 | 103 ± 2.9 | 103 ± 4.1 | 95.8 ± 5.3 | 89.1 | 90.3 | 106 | 96.5 | 97 | 99.2 ± 5.4 | 92.7 ± 7.1 | 110 ± 4 | 88 ± 5.7 | 92.2 ± 7.7 | 101 ± 2.6 | 102 ± 3.1 | 100 | 105 ± 2.8 | 100 ± 1.8 | 99.5 ± 3.5 | 96.8 ± 1.3 | 99.4 ± 2.4 | 97.2 ± 2.3 | 99.3 ± 4.4 | > 10 | > 10 | > 10 | > 10 | > 10 | 0 | 0 | 0.25 ± 0.35 | 0 | 0
11 | CCC(CC)(CC(=O)Nc1cccc(/C=C/c2nc(C3CCC3)cs2)c1)C(=O)O [cinalukast] | 99.2 | 97.1 | 102 | 96.9 | 90.7 | 98.9 | 89.9 | 88.1 | 88.4 | 101 | 97.4 | 108 | 106 | 91.9 | 95.7 | 102 | 96.7 | 107 | 99.4 | 103 | 101 | 109 | 101 | 98.2 | 96.6 | > 10 | > 10 | > 10 | > 10 | > 10 | 0 | 0 | 0 | 0 | 0
12 | C/C=C/c1cc(OC)c(OC)cc1OC [alpha-asarone] | 87.7 | 108 | 88.3 | 118 | 93.5 | 94.6 | 99.8 | 102 | 94 | 105 | 91.3 | 107 | 91.9 | 93.3 | 90.3 | 97.3 | 101 | 93.9 | 100 | 100 | 109 | 86.1 | 99.8 | 101 | 104 | > 10 | > 10 | > 10 | > 10 | > 10 | 0 | 0 | 0 | 0 | 0
13 | CO[C@@]1(NC(=O)C2SC(=C(C(N)=O)C(=O)O)S2)C(=O)N2C(C(=O)O)=C(CSc3nnnn3C)CS[C@@H]21 (stereo not given in full) [cefotetan] | 92.4 | 95.3 | 93.6 | 95.9 | 101 | 109 | 94.1 | 108 | 105 | 103 | 108 | 89.7 | 99.1 | 100 | 103 | 98.3 | 99.6 | 98.5 | 99.8 | 96.1 | 105 | 104 | 103 | 98.2 | 99.9 | > 10 | > 10 | > 10 | > 10 | > 10 | 0 | 0 | 0 | 0 | 0
